Reference: paper PMC9652372, “Glycolytic flux control by drugging phosphoglycolate phosphatase” (Nature Communications, 2022)
pIC50: −log10 of the molar value.

Target: T1, NANP/HDHD4 (Mus musculus, UniProt Q9CPT3)
T1 construct: made in house; host or cells: Escherichia coli BL21 (DE3), pETM11 (cDNA from Origene #MR203153)
T1 sequence (Q9CPT3 1-248): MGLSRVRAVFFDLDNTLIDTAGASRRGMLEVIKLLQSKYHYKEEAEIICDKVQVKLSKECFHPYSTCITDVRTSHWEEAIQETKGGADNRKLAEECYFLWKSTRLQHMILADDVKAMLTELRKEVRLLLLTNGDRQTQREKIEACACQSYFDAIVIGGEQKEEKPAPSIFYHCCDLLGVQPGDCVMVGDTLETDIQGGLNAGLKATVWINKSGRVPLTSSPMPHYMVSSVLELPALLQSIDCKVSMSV
Assay: In vitro phosphatase activity assay, NANP/HDHD4 (6-phosphogluconate)
Format: biochemical, murine
Conditions: NANP activity on 6-phosphogluconate
Excerpt: The following phosphatase constructs (in pCMV6) were purchased from Origene: murine LHPP (NM_029609; catalog #MC211738), murine LPIN1, transcript variant 2 (NM_015763, #MC204460), murine MDP1 (NM_023397, #MR201315), murine […]_026086, #MR203153), murine NT5C (NM_015807, #MR202028), human NT5M (NM_020201, #RC207737), murine PNKP (NM_021549, #MR207938), and murine PSPH (NM_133900, #MR202626). Purified human NT5C1A (NM_032526, #TP324617) and purified human PHOSPHO1 (NM_178500, #TP314434) were from Origene. The murine PHOSPHO2 construct (in pFLCI) was from Source BioScience (clone ID: I420023L04). Calf intestinal alkaline phosphatase (CIP) was from NEB. Purified, recombinant human calcineurin (PP2B) and human PTP1B (residues 1-322) were from Millipore (#207005 or #539736, respectively). […] The 3'-P-oligonucleotide 5'-[NT]^3-]-3' was used as a PNKP substrate. […] Data were analyzed with GraphPad Prism 7.04. […] (c) Upper panel, purity of the tested, recombinant phosphatases (10 μg of protein/lane). A Coomassie Blue-stained gel is shown. Tested enzymes that are not included in this panel were obtained commercially. Lower panel , Western blots showing the overexpression of the myc-tagged cytosolic 5', 3'-nucleotidase NT5C and mitochondrial 5', 3'-nucleotidase NT5M in HEK293 cells (uncropped blots in Source Data). […] Error bars not shown are hidden by the symbols. […]

## COc1ccc(C(=O)Nc2ccc(Cc3ccc(NC(=O)c4ccc(OC)c(OC)c4)c(C(=O)O)c3)cc2C(=O)O)cc1OC [CP2]
  pIC50: ~6.00
